The values below come from patent publication US7119115B2, “Indazole or indole derivatives, and use thereof in human medicine and more particularly in oncology” (Aventis Pharma S.A., priority 2001, dated 2006).

Usually IC50 stands for the point on the concentration scale where inhibition reaches its midpoint. A lower IC50 goes with inhibition by little substance.

The experiment has as its target T1, Tubulin (Sus scrofa, UniProt P02550+P02554).
T1 construct: Tubulin is purified from pig brain according to published methods; from tissue; host or cells: pig brain
Put plainly: Evaluation of the inhibition of tubulin polymerization (turbidimetry at 350 nm). It counts as biochemical. The following applies: concentration that inhibits the rate of polymerization by 50%; pig brain tubulin 10 μM. As for the experimental part: Briefly, the brains are ground and centrifuged in an extraction buffer. The tubulin contained in the supernatant of the extract undergoes two successive cycles of polymerization at 37° C. and depolymerization at 4° C., before being separated from the MAPs (Microtubule Associated Proteins) by chromatography on a phosphocellulose P11 column (Whatman). […] It is stored in a buffer known as RB/2 30% glycerol, the composition of which is 50 mM MES-NaOH [2-(N-morpholino)ethanesulphonic acid], pH 6.8; 0.25 mM MgCl2; 0.5 mM EGTA; 30% glycerol (v/v), 0.2 mM GTP (guanosine-5′-triphosphate).
The polymerization of tubulin to microtubules is monitored by turbidimetry as follows: the tubulin is adjusted to a concentration of 10 μM (1 mg/ml) in RB/2 30% glycerol buffer to which 1 mM GTP and 6 mM MgCl2 are added. […] The increase in the turbidity of the solution is monitored at 350 nm.
The products are dissolved at 10 mM in DMSO and added at variable concentrations (0.5 to 10 μM) to the tubulin solution before polymerization.

T1 sequence (P02550 whole entry): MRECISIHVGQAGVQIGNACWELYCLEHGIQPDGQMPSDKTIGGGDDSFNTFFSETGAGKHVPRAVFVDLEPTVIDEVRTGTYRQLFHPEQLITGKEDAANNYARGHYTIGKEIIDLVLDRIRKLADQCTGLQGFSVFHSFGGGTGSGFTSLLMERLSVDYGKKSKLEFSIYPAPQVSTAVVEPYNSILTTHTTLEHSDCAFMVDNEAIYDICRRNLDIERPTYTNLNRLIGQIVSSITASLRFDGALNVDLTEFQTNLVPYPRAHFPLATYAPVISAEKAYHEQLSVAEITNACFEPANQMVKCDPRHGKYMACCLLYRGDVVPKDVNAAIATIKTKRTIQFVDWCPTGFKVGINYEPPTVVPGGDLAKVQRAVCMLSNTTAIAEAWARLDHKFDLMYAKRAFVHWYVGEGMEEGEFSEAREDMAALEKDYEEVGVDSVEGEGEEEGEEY
T1 sequence (P02554 whole entry): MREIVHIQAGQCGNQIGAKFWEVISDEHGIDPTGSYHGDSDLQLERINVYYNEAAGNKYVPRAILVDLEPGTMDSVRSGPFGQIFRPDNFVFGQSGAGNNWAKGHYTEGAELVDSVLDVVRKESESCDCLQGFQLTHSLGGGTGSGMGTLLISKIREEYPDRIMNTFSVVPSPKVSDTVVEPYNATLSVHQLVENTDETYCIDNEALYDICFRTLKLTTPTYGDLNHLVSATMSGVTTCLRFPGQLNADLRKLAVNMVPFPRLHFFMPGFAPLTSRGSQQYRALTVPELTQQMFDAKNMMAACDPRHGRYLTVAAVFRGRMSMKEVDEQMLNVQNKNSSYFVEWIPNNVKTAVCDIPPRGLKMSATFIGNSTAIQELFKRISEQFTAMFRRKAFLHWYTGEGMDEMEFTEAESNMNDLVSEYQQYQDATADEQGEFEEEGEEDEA

For the compound `C1=CC(c2ccccc2)(c2ccccc2)Cc2[nH]nc(/C(=N\OCc3ccccc3)C3CC3)c21` [Example 6-8A, cyclopropyl(6,6-diphenyl-6,7-dihydro-1H-indazol-3-yl)methanone O-benzyloxime], the concentration for half-maximal inhibition (IC50) amounted to 1.3 µM. For `CCOC(=O)c1n[nH]c2c1C=CC(c1ccc(F)cc1)(c1ccc(F)cc1)C2` [Example 10-6, Ethyl 6,6-bis(4-fluorophenyl)-6,7-dihydro-1H-indazole-3-carboxylate], the IC50 was 1 µM. The value for `O/N=C(/c1n[nH]c2c1C=CC(c1ccccc1)(c1ccc(F)cc1)C2)C1CC1` (single isomer, unassigned) [Example 10-5D, cyclopropyl[6-(4-fluorophenyl)-6-phenyl-6,7-dihydro-1H-indazol-3-yl]methanone oxime] was 1.5 µM; that for `CN(C)CCO/N=C(/c1n[nH]c2c1C=CC(c1ccccc1)(c1ccccc1)C2)C1CC1` [Example 6-10B, cyclopropyl(6,6-diphenyl-6,7-dihydro-1H-indazol-3-yl)methanone O-(2-dimethylaminoethyl)oxime] was 12 µM. The same measure for `O=C(c1n[nH]c2c1C=CC(c1ccccc1)(c1ccccc1)C2)N1CC1` [Example 3-4, Aziridin-1-yl(6,6-diphenyl-6,7-dihydro-1H-indazol-3-yl)methanone]: 4.5 µM; for `C1=CC(c2ccccc2)(c2ccccc2)Cc2[nH]nc(-c3ccccc3)c21` [Example 8-2, 3,6,6-Triphenyl-6,7-dihydro-1H-indazole]: 1 µM; for `O=C(c1cc[nH]c1)c1n[nH]c2c1C=CC(c1ccccc1)(c1ccccc1)C2` [Example 5-4, (6,6-Diphenyl-6,7-dihydro-1H-indazol-3-yl)-(1H-pyrrol-3-yl)methanone]: 7 µM.

`O/N=C(\c1n[nH]c2c1C=CC(c1ccccc1)(c1ccc(F)cc1)C2)C1CC1` (single isomer, unassigned) [Example 10-5E, cyclopropyl[6-(4-fluorophenyl)-6-phenyl-6,7-dihydro-1H-indazol-3-yl]methanone oxime] yielded a concentration for half-maximal inhibition (IC50) of 6 µM. As to `O=C(c1n[nH]c2c1C=CC(c1ccccc1)(c1ccc(F)cc1)C2)C1CC1` (single isomer, unassigned) [Example 10-4C, cyclopropyl[6-(4-fluorophenyl)-6-phenyl-6,7-dihydro-1H-indazol-3-yl]methanone], half-maximal inhibition (IC50) was put at 1.5 µM. Regarding `ON=C(c1n[nH]c2c1C=CC(c1ccccc1)(c1ccc(F)cc1)C2)C1CC1` (single isomer, unassigned) [Example 10-5B], the IC50 worked out at 6 µM.

`COCCO/N=C(\c1n[nH]c2c1C=CC(c1ccccc1)(c1ccccc1)C2)C1CC1` [Example 6-7A, cyclopropyl(6,6-diphenyl-6,7-dihydro-1H-indazol-3-yl)methanone O-(2-methoxyethyl)oxime]: inhibition was half-maximal at 1.8 µM (IC50). In the case of `O=C(c1ccccc1)c1n[nH]c2c1C=CC(c1ccccc1)(c1ccccc1)C2` [Example 5-3, (6,6-Diphenyl-6,7-dihydro-1H-indazol-3-yl)phenylmethanone], inhibition was half-maximal at 12.5 µM (IC50). The same measure for `C1=CC(c2ccccc2)(c2ccccc2)Cc2[nH]nc(-c3ccsc3)c21` [Example 8-4, 6,6-Diphenyl-3-thiophen-3-yl-6,7-dihydro-1H-indazole]: 1.2 µM; for `COC(=O)c1[nH]nc2c1C=CC(c1ccccc1)(c1ccccc1)C2` [Example 2-2, Methyl 6,6-diphenyl-6,7-dihydro-2H-indazole-3-carboxylate]: 1.25 µM; for `ON=C(c1n[nH]c2c1C=CC(c1ccccc1)(c1ccccc1)C2)C1CC1` (single isomer, unassigned) [Example 6-1B, cyclopropyl(6,6-diphenyl-6,7-dihydro-1H-indazol-3-yl)methanone oxime]: 3 µM. On to `FCCO/N=C(/c1n[nH]c2c1C=CC(c1ccccc1)(c1ccccc1)C2)C1CC1` [Example 6-11B, cyclopropyl(6,6-diphenyl-6,7-dihydro-1H-indazol-3-yl)methanone O-(2-fluoroethyl)oxime], for which the IC50 came to 1.3 µM. In the case of `Cc1ccc(S(=O)(=O)n2nc(N)c3c2CC(c2ccccc2)(c2ccccc2)C=C3)cc1` [Example 7-1, 6,6-Diphenyl-1-(4-toluenesulphonyl)-6,7-dihydro-1H-indazol-3-ylamine], the IC50 was found to be 6 µM. The same measure for `FCCO/N=C(\c1n[nH]c2c1C=CC(c1ccccc1)(c1ccccc1)C2)C1CC1` [Example 6-11A, cyclopropyl(6,6-diphenyl-6,7-dihydro-1H-indazol-3-yl)methanone O-(2-fluoroethyl)oxime]: 1 µM; for `C=CCON=C(c1n[nH]c2c1C=CC(c1ccccc1)(c1ccccc1)C2)C1CCC1` (single isomer, unassigned) [Example 6-5, Cyclobutyl(6,6-diphenyl-6,7-dihydro-1H-indazol-3-yl)methanone O-allyloxime]: 3 µM.

With `CCOC(=O)c1n[nH]c2c1C=CC(c1ccc(OC)cc1)(c1ccc(OC)cc1)C2` [Example 10-1, Ethyl 6,6-bis(4-methoxyphenyl)-6,7-dihydro-1H-indazole-3-carboxylate], the half-inhibitory concentration (IC50) is 15 to 20 µM. The value for `CCOC(=O)c1n[nH]c2c1C=CC(c1ccccc1)(c1ccccc1)C2C` (stereo not drawn) [Example 13, Ethyl 7-methyl-6,6-diphenyl-6,7-dihydro-1H-indazole-3-carboxylate] was 1.5 µM; that for `O=[N+]([O-])c1ccc(CO/N=C(\c2n[nH]c3c2C=CC(c2ccccc2)(c2ccccc2)C3)C2CC2)cc1` [Example 6-9A, cyclopropyl(6,6-diphenyl-6,7-dihydro-1H-indazol-3-yl)methanone O-(4-nitrobenzyl)oxime] was 1.5 µM. Turning to `CCOC(=O)c1n[nH]c2c1C=CC(c1ccccc1)(c1ccc(F)cc1)C2` (single isomer, unassigned) [Example 10-3C, ethyl 6,6-(4-fluorophenyl)-6-phenyl-6,7-dihydro-1H-indazole-3-carboxylate], the IC50 came out at 1.5 µM. `C=CCO/N=C(/c1n[nH]c2c1C=CC(c1ccccc1)(c1ccccc1)C2)C1CC1` [Example 6-6B, cyclopropyl(6,6-diphenyl-6,7-dihydro-1H-indazol-3-yl)methanone O-allyloxime] registered an IC50 of 1.2 µM.

Regarding `CC(C)OC(=O)c1[nH]nc2c1C=CC(c1ccccc1)(c1ccccc1)C2` [Example 2-1, Isopropyl 6,6-diphenyl-6,7-dihydro-2H-indazole-3-carboxylate], the IC50 was 3.7 µM. The same measure for `O=[N+]([O-])c1ccc(CO/N=C(/c2n[nH]c3c2C=CC(c2ccccc2)(c2ccccc2)C3)C2CC2)cc1` [Example 6-9B, cyclopropyl(6,6-diphenyl-6,7-dihydro-1H-indazol-3-yl)methanone O-(4-nitrobenzyl)oxime]: 2.5 µM.

Compound `C1=CC(c2ccccc2)(c2ccccc2)Cc2[nH]nc(/C(=N/OCc3ccccc3)C3CC3)c21` [Example 6-8B, cyclopropyl(6,6-diphenyl-6,7-dihydro-1H-indazol-3-yl)methanone O-benzyloxime] came in with an IC50 of 10 µM. In the case of `C1=CC(c2ccccc2)(c2ccccc2)Cc2[nH]nc(-c3cccnc3)c21` [Example 8-3, 6,6-Diphenyl-3-pyrid-3-yl-6,7-dihydro-1H-indazole], the IC50 stood at 6 µM. The compound `CCOC(=O)c1[nH]cc2c1C=CC(c1ccccc1)(c1ccccc1)C2` [Example 11, Ethyl 5,5-diphenyl-4,5-dihydro-2H-isoindole-1-carboxylate] yielded an IC50 of 6.5 µM. `CN(C)CCO/N=C(\c1n[nH]c2c1C=CC(c1ccccc1)(c1ccccc1)C2)C1CC1` [Example 6-10A, cyclopropyl(6,6-diphenyl-6,7-dihydro-1H-indazol-3-yl)methanone O-(2-dimethylaminoethyl)oxime] displayed a concentration for half-maximal inhibition (IC50) of 4.5 µM. The value for `N#Cc1n[nH]c2c1C=CC(c1ccccc1)(c1ccccc1)C2` [Example 4, 6,6-Diphenyl-6,7-dihydro-1H-indazole-3-carbonitrile] was 23 µM; that for `CCOC(=O)c1n[nH]c2c1C=CC(C)(c1ccccc1)C2` (racemic) [Example 9-1, Ethyl 6-(R,S)-6-methyl-6-phenyl-6,7-dihydro-1H-indazole-3-carboxylate] was 18 µM. Turning to `CCOC(=O)c1n[nH]c2c1C=CC(c1ccccc1)(c1ccc(OC)c(OC)c1)C2` (racemic) [Example 10-2, Ethyl 6-(R,S)-6-(3,4-dimethoxyphenyl)-6-phenyl-6,7-dihydro-1H-indazole-3-carboxylate], the IC50 was determined as 4.5 µM. As to `CCOC(=O)c1n[nH]c2c1C=CC(C)(c1ccccc1)C2` (single isomer, unassigned) [Example 9-2, ethyl 6-methyl-6-phenyl-6,7-dihydro-1H-indazole-3-carboxylate], half-maximal inhibition (IC50) was put at 15 µM. For `COCCO/N=C(/c1n[nH]c2c1C=CC(c1ccccc1)(c1ccccc1)C2)C1CC1` [Example 6-7B, cyclopropyl(6,6-diphenyl-6,7-dihydro-1H-indazol-3-yl)methanone O-(2-methoxyethyl)oxime], the half-maximal inhibitory concentration (IC50) turned out to be 6 µM. In the case of `O=C(c1n[nH]c2c1C=CC(c1ccccc1)(c1ccc(F)cc1)C2)C1CC1` (single isomer, unassigned) [Example 10-4B, cyclopropyl[6-(4-fluorophenyl)-6-phenyl-6,7-dihydro-1H-indazol-3-yl]methanone], 0.8 µM corresponded to half-maximal inhibition (IC50).
